# Data published in ChEMBL document CHEMBL1201862, “PubChem BioAssay data set” (2004).
#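 48-hour exposure; five concentrations; linearly interpolated endpoints. GI50 = concentration required for 50% inhibition of growth.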 The source made the active and inactive calls. No stated cut-off is given here; in the data, active = GI50 up to about 1.1 µM and inactive = higher.
# Legend:
# Experiment in all cases: inhibition of tumour cell growth, NCI panel, 48 h
# SK-MEL-5 = system: SK-MEL-5
# PC-3 = system: PC-3
# ACHN = system: ACHN
# COLO 205 = system: COLO 205
# NCI-H522 = system: NCI-H522
# SK-OV-3 = system: SK-OV-3
# UO-31 = system: UO-31
# MDA-N = system: MDA-N
# 786-0 = system: 786-0
# EKVX = system: EKVX
# T47D = system: T47D
# KM12 = system: KM12
# A549 = system: A549
# NCI-H460 = system: NCI-H460
# SF-268 = system: SF-268
# CAKI-1 = system: CAKI-1
# HCC 2998 = system: HCC 2998
# RXF 393 = system: RXF 393
# RPMI-8226 = system: RPMI-8226
# NCI/ADR-RES = system: NCI/ADR-RES
SMILES,GI50 (SK-MEL-5),GI50 (PC-3),GI50 (ACHN),GI50 (COLO 205),GI50 (NCI-H522),GI50 (SK-OV-3),GI50 (UO-31),GI50 (MDA-N),GI50 (786-0),GI50 (EKVX),GI50 (T47D),GI50 (KM12),GI50 (A549),GI50 (NCI-H460),GI50 (SF-268),GI50 (CAKI-1),GI50 (HCC 2998),GI50 (RXF 393),GI50 (RPMI-8226),GI50 (NCI/ADR-RES)
Cc1ccc(C(=O)Cc2nc3ncccc3[nH]c2=O)cc1,40.8 µM (inactive),43.9 µM (inactive),25.7 µM (inactive),58.9 µM (inactive),48.3 µM (inactive),23 µM (inactive),32.1 µM (inactive),74.8 µM (inactive),22.5 µM (inactive),33.2 µM (inactive),45.5 µM (inactive),43.4 µM (inactive),12.8 µM (inactive),45.4 µM (inactive),41.6 µM (inactive),65.5 µM (inactive),51.5 µM (inactive),44.2 µM (inactive),59 µM (inactive),59 µM (inactive)
Cc1cccc2c1C(=O)/C(=C/c1ccccc1C(=O)O)C2,37.5 µM (inactive),> 100 µM (inactive),> 100 µM (inactive),> 100 µM (inactive),> 100 µM (inactive),–,> 100 µM (inactive),> 100 µM (inactive),> 100 µM (inactive),66.8 µM (inactive),> 100 µM (inactive),> 100 µM (inactive),> 100 µM (inactive),> 100 µM (inactive),> 100 µM (inactive),> 100 µM (inactive),> 100 µM (inactive),> 100 µM (inactive),32.8 µM (inactive),> 100 µM (inactive)
CC1(C)COC(c2ccccc2-c2ccccc2)=N1,–,> 100 µM (inactive),> 100 µM (inactive),> 100 µM (inactive),38.7 µM (inactive),> 100 µM (inactive),67.6 µM (inactive),> 100 µM (inactive),> 100 µM (inactive),72.1 µM (inactive),83.2 µM (inactive),> 100 µM (inactive),59.2 µM (inactive),> 100 µM (inactive),> 100 µM (inactive),81.3 µM (inactive),> 100 µM (inactive),70.5 µM (inactive),> 100 µM (inactive),> 100 µM (inactive)
CCC(NC1=NCCO1)c1cccs1 (configuration not stated),16.8 µM (inactive),13.4 µM (inactive),15.9 µM (inactive),17.3 µM (inactive),19.5 µM (inactive),13.8 µM (inactive),18.7 µM (inactive),14.6 µM (inactive),15.3 µM (inactive),16.5 µM (inactive),16.4 µM (inactive),18 µM (inactive),14.1 µM (inactive),15.7 µM (inactive),–,17.2 µM (inactive),15.5 µM (inactive),19 µM (inactive),25.1 µM (inactive),43.1 µM (inactive)
Clc1nc2c(-c3cccs3)ncnc2n1Cc1ccccc1,24.9 µM (inactive),26.2 µM (inactive),2 µM (inactive),34.7 µM (inactive),19.4 µM (inactive),38.9 µM (inactive),0.435 µM (active),42.6 µM (inactive),19.5 µM (inactive),21.4 µM (inactive),10.1 µM (inactive),15.9 µM (inactive),32.4 µM (inactive),37.9 µM (inactive),29.6 µM (inactive),3.08 µM (inactive),3.21 µM (inactive),17 µM (inactive),3.58 µM (inactive),46.3 µM (inactive)
[N-]=[N+]=C1CNC(=O)NC1=O,> 100 µM (inactive),> 100 µM (inactive),69.3 µM (inactive),> 100 µM (inactive),> 100 µM (inactive),> 100 µM (inactive),> 100 µM (inactive),> 100 µM (inactive),60.4 µM (inactive),> 100 µM (inactive),> 100 µM (inactive),> 100 µM (inactive),> 100 µM (inactive),> 100 µM (inactive),> 100 µM (inactive),> 100 µM (inactive),> 100 µM (inactive),> 100 µM (inactive),28.8 µM (inactive),> 100 µM (inactive)
Cc1ccc2c(c1)[nH]c(=S)n2/C=C1\C(=O)Oc2ccccc2C1=O,40.6 µM (inactive),76.7 µM (inactive),36 µM (inactive),99.3 µM (inactive),38.7 µM (inactive),–,30.2 µM (inactive),90.6 µM (inactive),42.8 µM (inactive),–,89.1 µM (inactive),84.5 µM (inactive),77.4 µM (inactive),44.1 µM (inactive),55.7 µM (inactive),19.6 µM (inactive),> 100 µM (inactive),30.5 µM (inactive),65.2 µM (inactive),56.2 µM (inactive)
COc1ccc(C2C(Cl)C(=O)N2NC(=O)c2ccc(N)cc2)cc1OC (configuration not stated),12.2 µM (inactive),12.9 µM (inactive),13.7 µM (inactive),11.9 µM (inactive),1.98 µM (inactive),18.8 µM (inactive),12.1 µM (inactive),9.46 µM (inactive),2.43 µM (inactive),16.5 µM (inactive),11.1 µM (inactive),1.52 µM (inactive),15.4 µM (inactive),20.1 µM (inactive),10.9 µM (inactive),2.92 µM (inactive),8.11 µM (inactive),15.3 µM (inactive),3.1 µM (inactive),1.97 µM (inactive)
Cc1nc(C)c(N2CCN(C(=O)O)CC2)c(O)n1,> 100 µM (inactive),> 100 µM (inactive),> 100 µM (inactive),> 100 µM (inactive),> 100 µM (inactive),> 100 µM (inactive),> 100 µM (inactive),> 100 µM (inactive),> 100 µM (inactive),> 100 µM (inactive),> 100 µM (inactive),> 100 µM (inactive),> 100 µM (inactive),> 100 µM (inactive),> 100 µM (inactive),1.39 µM (inactive),> 100 µM (inactive),> 100 µM (inactive),> 100 µM (inactive),> 100 µM (inactive)
OCC(O)C(O)C(O)C1SC(c2ccccc2)=NN1c1ccccc1 (configuration not stated),> 78.5 µM (inactive),> 57.5 µM (inactive),64.7 µM (inactive),> 100 µM (inactive),33 µM (inactive),36.9 µM (inactive),66.2 µM (inactive),> 82.4 µM (inactive),37 µM (inactive),> 95.7 µM (inactive),> 46.8 µM (inactive),> 100 µM (inactive),78.3 µM (inactive),> 78 µM (inactive),24.6 µM (inactive),> 100 µM (inactive),> 100 µM (inactive),20.4 µM (inactive),> 86.3 µM (inactive),> 70.1 µM (inactive)
CO/N=C(\C(=O)Nc1cncs1)c1csc(NC(c2ccccc2)(c2ccccc2)c2ccccc2)n1,> 10 µM (inactive),4.38 µM (inactive),> 10 µM (inactive),> 10 µM (inactive),> 10 µM (inactive),> 10 µM (inactive),4.37 µM (inactive),> 10 µM (inactive),> 10 µM (inactive),6.12 µM (inactive),6.52 µM (inactive),9.4 µM (inactive),3.84 µM (inactive),4.56 µM (inactive),9.79 µM (inactive),> 10 µM (inactive),8.53 µM (inactive),9.55 µM (inactive),4.52 µM (inactive),> 10 µM (inactive)
CC(C)c1cc(C(C)C)c(S(=O)(=O)N/N=C2\CC3CCC2(C)C3(C)C)c(C(C)C)c1 (configuration not stated),14.5 µM (inactive),18.3 µM (inactive),15 µM (inactive),12.9 µM (inactive),5.37 µM (inactive),55.3 µM (inactive),30.4 µM (inactive),15.1 µM (inactive),28.4 µM (inactive),11 µM (inactive),11.8 µM (inactive),36.1 µM (inactive),23.6 µM (inactive),–,34.9 µM (inactive),20.2 µM (inactive),23.3 µM (inactive),11.7 µM (inactive),3.08 µM (inactive),20.8 µM (inactive)
N#C[BH2-][n+]1ccc(C(=O)NNCc2ccccc2)cc1,> 100 µM (inactive),> 100 µM (inactive),> 100 µM (inactive),> 100 µM (inactive),> 100 µM (inactive),–,> 100 µM (inactive),> 100 µM (inactive),> 100 µM (inactive),> 100 µM (inactive),> 100 µM (inactive),> 100 µM (inactive),> 100 µM (inactive),> 100 µM (inactive),> 100 µM (inactive),> 100 µM (inactive),> 100 µM (inactive),> 100 µM (inactive),> 100 µM (inactive),> 100 µM (inactive)
CCN(CC)CCC(=O)c1ccc(C)cc1,13.1 µM (inactive),54.7 µM (inactive),20.6 µM (inactive),16.9 µM (inactive),13.8 µM (inactive),> 100 µM (inactive),23 µM (inactive),20.7 µM (inactive),17.7 µM (inactive),31.3 µM (inactive),14.7 µM (inactive),> 10 µM (inactive),> 100 µM (inactive),> 100 µM (inactive),> 100 µM (inactive),–,43 µM (inactive),17 µM (inactive),2.62 µM (inactive),25.5 µM (inactive)
